Drawing on patent US12291519B2, “2-hydroxycycloalkane-1-carbamoyl” (Idorsia Pharmaceuticals Ltd, priority 2019, dated 2025), this text covers IC50 for seven compounds.

The target of one assay is human Gal-3 (hGal-3) (Homo sapiens (Human), UniProt P17931). The assay can be described thus: Competitive binding assay: biotinylated hGal-3 binding to microplate-adsorbed asialofetuin (ASF). The following applies: Activity on hGal-3; binding of biotinylated hGal-3 to ASF-coated plates; mean values. Summed up: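 Serially diluted compounds competed with biotinylated human Gal-3 for binding to plate-adsorbed asialofetuin over 3 h at 4 °C. Bound Gal-3 was detected with streptavidin-peroxidase (80 ng/mL, 1 h, 4 °C) and ABTS substrate. IC50 values are means of several measurements.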
human Gal-3 (hGal-3), sequence (P17931 whole entry): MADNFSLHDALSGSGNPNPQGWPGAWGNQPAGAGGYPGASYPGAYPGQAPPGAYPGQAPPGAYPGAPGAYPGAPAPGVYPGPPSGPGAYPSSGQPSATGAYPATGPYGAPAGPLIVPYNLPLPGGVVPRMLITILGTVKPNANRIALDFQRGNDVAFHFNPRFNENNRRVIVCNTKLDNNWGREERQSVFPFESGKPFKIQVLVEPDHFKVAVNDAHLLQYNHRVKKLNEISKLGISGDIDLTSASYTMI

A further assay has as its target human Gal-1 (hGal-1). The assay is described as follows: Competitive binding assay: biotinylated hGal-1 binding to microplate-adsorbed asialofetuin (ASF). The following applies: Activity on hGal-1; binding of biotinylated hGal-1 to ASF-coated plates; mean values. Summed up:
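Inhibition measured as loss of hGal-1 (biotinylated, 300–1000 ng/mL, wild type or Cys→Ser mutant) binding to adsorbed asialofetuin over 3 h at 4 °C. Bound lectin detected with streptavidin-HRP and ABTS (410 nm, 30–45 min); IC50 values averaged across repeat measurements.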

human Gal-1 (hGal-1), sequence (P09382 2-135 limits assumed): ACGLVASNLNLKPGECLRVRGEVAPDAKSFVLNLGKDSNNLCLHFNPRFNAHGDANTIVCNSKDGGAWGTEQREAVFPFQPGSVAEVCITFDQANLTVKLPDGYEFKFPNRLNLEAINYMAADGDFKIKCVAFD

In the case of `CO[C@@H]1[C@@H](n2cc(-c3cc(F)c(F)c(F)c3)nn2)[C@@H](O)[C@@H](CO)O[C@H]1C(=O)N(c1cc2sc(C)nc2cc1C)[C@H]1CCCC[C@@H]1O` [Example 106, (2R,3R,4S,5R,6R)-N-(2,5-dimethylbenzo[d]thiazol-6-yl)-5-hydroxy-N-((1S,2S)-2-hydroxycyclohexyl)-6-(hydroxymethyl)-3-methoxy-4-(4-(3,4,5-trifluorophenyl)-1H-1,2,3-triazol-1-yl)tetrahydro-2H-pyran-2-carboxamide], the concentration for half-maximal inhibition (IC50) at human Gal-3 (hGal-3) is 56 nM; on human Gal-1 (hGal-1), 143 nM.

As for `CO[C@@H]1[C@@H](n2cc(-c3cc(F)c(F)c(F)c3)nn2)[C@@H](O)[C@@H](CO)O[C@H]1C(=O)N(c1ccc2nc(Cl)sc2c1)[C@H]1CCCC[C@@H]1O` [Example 107, (2R,3R,4S,5R,6R)-N-(2-chlorobenzo[d]thiazol-6-yl)-5-hydroxy-N-((1S,2S)-2-hydroxycyclohexyl)-6-(hydroxymethyl)-3-methoxy-4-(4-(3,4,5-trifluorophenyl)-1H-1,2,3-triazol-1-yl)tetrahydro-2H-pyran-2-carboxamide], the IC50 on human Gal-3 (hGal-3) was found to be 317 nM; at human Gal-1 (hGal-1), 1200 nM.

For the compound `COc1cc(C#N)cc(N(C(=O)[C@@H]2O[C@H](CO)[C@H](O)[C@H](n3cc(-c4cc(F)c(F)c(F)c4)nn3)[C@H]2OC)[C@H]2CCCC[C@@H]2O)c1` [Example 108, (2R,3R,4S,5R,6R)-N-(3-cyano-5-methoxyphenyl)-5-hydroxy-N-((1S,2S)-2-hydroxycyclohexyl)-6-(hydroxymethyl)-3-methoxy-4-(4-(3,4,5-trifluorophenyl)-1H-1,2,3-triazol-1-yl)tetrahydro-2H-pyran-2-carboxamide], the IC50 on human Gal-3 (hGal-3) was found to be 24 nM; on human Gal-1 (hGal-1), 1570 nM.

On to `CO[C@@H]1[C@@H](n2cc(-c3cc(F)c(F)c(F)c3)nn2)[C@@H](O)[C@@H](CO)O[C@H]1C(=O)N(c1cc(Br)ccc1C)[C@H]1CCCC[C@@H]1O` [Example 109, (2R,3R,4S,5R,6R)-N-(5-bromo-2-methylphenyl)-5-hydroxy-N-((1S,2S)-2-hydroxycyclohexyl)-6-(hydroxymethyl)-3-methoxy-4-(4-(3,4,5-trifluorophenyl)-1H-1,2,3-triazol-1-yl)tetrahydro-2H-pyran-2-carboxamide], for which the half-maximal inhibitory concentration (IC50) at human Gal-3 (hGal-3) came to 17 nM; on human Gal-1 (hGal-1), 100 nM.

`CO[C@@H]1[C@@H](n2cc(-c3cc(F)c(F)c(F)c3)nn2)[C@@H](O)[C@@H](CO)O[C@H]1C(=O)N(c1ccc(Cl)cc1)[C@H]1CCCC[C@@H]1O` [Example 111, (2R,3R,4S,5R,6R)-N-(4-chlorophenyl)-5-hydroxy-N-((1S,2S)-2-hydroxycyclohexyl)-6-(hydroxymethyl)-3-methoxy-4-(4-(3,4,5-trifluorophenyl)-1H-1,2,3-triazol-1-yl)tetrahydro-2H-pyran-2-carboxamide]: the IC50 at human Gal-3 (hGal-3) came to 158 nM; on human Gal-1 (hGal-1), 4220 nM.

With `CO[C@@H]1[C@@H](n2cc(-c3cc(F)c(F)c(F)c3)nn2)[C@@H](O)[C@@H](CO)O[C@H]1C(=O)N(c1cc(F)cc(C#N)c1)[C@H]1CCCC[C@@H]1O` [Example 113, (2R,3R,4S,5R,6R)-N-(3-cyano-5-fluorophenyl)-5-hydroxy-N-((1S,2S)-2-hydroxycyclohexyl)-6-(hydroxymethyl)-3-methoxy-4-(4-(3,4,5-trifluorophenyl)-1H-1,2,3-triazol-1-yl)tetrahydro-2H-pyran-2-carboxamide], the IC50 at human Gal-3 (hGal-3) was determined as 18 nM; on human Gal-1 (hGal-1), 520 nM.

Consider `CO[C@@H]1[C@@H](n2cc(-c3cc(F)c(F)c(F)c3)nn2)[C@@H](O)[C@@H](CO)O[C@H]1C(=O)N(c1cccc(F)c1)[C@H]1CCCC[C@@H]1O` [Example 114, (2R,3R,4S,5R,6R)-N-(3-fluorophenyl)-5-hydroxy-N-((1S,2S)-2-hydroxycyclohexyl)-6-(hydroxymethyl)-3-methoxy-4-(4-(3,4,5-trifluorophenyl)-1H-1,2,3-triazol-1-yl)tetrahydro-2H-pyran-2-carboxamide], for which the half-inhibitory concentration (IC50) on human Gal-3 (hGal-3) was 49 nM; on human Gal-1 (hGal-1) it was 2010 nM.
